Measurements published in publication PMC7265341, “Quantifying CDK inhibitor selectivity in live cells” (Nature Communications, 2020).
Like-named read-outs stand apart in the source and are kept apart here.

Legend:
CDK1/Cyclin E1 = CDK1/Cyclin E1 (Homo sapiens, UniProt P06493); assay: NanoBRET live-cell target engagement, CDK1-NanoLuc/Cyclin E1 in HEK-293; assay type: binding; conditions: 10µM, read-out: CDK1/E1 Inhibition at 10µM (%)
CDK2/Cyclin E1 = CDK2/Cyclin E1 (Homo sapiens, UniProt P24941); assay: NanoBRET live-cell target engagement, CDK2-NanoLuc/Cyclin E1 in HEK-293; assay type: binding; conditions: 10µM, read-out: CDK2/E1 Inhibition at 10µM (%)
CDK3/Cyclin E1 = CDK3/Cyclin E1 (Homo sapiens, UniProt Q00526); assay: NanoBRET live-cell target engagement, CDK3-NanoLuc/Cyclin E1 in HEK-293; assay type: binding; conditions: 10µM, read-out: CDK3/E1 Inhibition at 10µM (%)
CDK4/Cyclin D1 = CDK4/Cyclin D1 (Homo sapiens, UniProt P11802); assay: NanoBRET live-cell target engagement, NanoLuc-CDK4/Cyclin D1 in HEK-293; assay type: binding; conditions: 10µM, read-out: CDK4/D1 Inhibition at 10µM (%)
CDK5/CDK5R1 = CDK5/CDK5R1 (Homo sapiens, UniProt Q00535); assay: NanoBRET live-cell target engagement, CDK5-NanoLuc/CDK5R1 in HEK-293; assay type: binding; conditions: 10µM, read-out: CDK5/CDK5R1 Inhibition at 10µM (%)
CDK6/Cyclin D1 = CDK6/Cyclin D1 (Homo sapiens, UniProt Q00534); assay: NanoBRET live-cell target engagement, NanoLuc-CDK6/Cyclin D1 in HEK-293; assay type: binding; conditions: 10µM, read-out: CDK6/D1 Inhibition at 10µM (%)
CDK7 = CDK7 (Homo sapiens, UniProt P50613); assay: NanoBRET live-cell target engagement, NanoLuc-CDK7 in HEK-293; assay type: binding; conditions: 10µM, read-out: CDK7 Inhibition at 10µM (%)
CDK8/Cyclin C = CDK8/Cyclin C (Homo sapiens, UniProt P49336); assay: NanoBRET live-cell target engagement, NanoLuc-CDK8/Cyclin C in HEK-293; assay type: binding; conditions: 10µM, read-out: CDK8/C Inhibition at 10µM (%)
CDK9/Cyclin K = CDK9/Cyclin K (Homo sapiens, UniProt P50750); assay: NanoBRET live-cell target engagement, NanoLuc-CDK9/Cyclin K in HEK-293; assay type: binding; conditions: 10µM, read-out: CDK9/K Inhibition at 10µM (%)
CDK11A/Cyclin L2 = target: T1, CDK11A/Cyclin L2 (Homo sapiens, UniProt Q9UQ88); assay: NanoBRET live-cell target engagement, CDK11A-NanoLuc/Cyclin L2 in HEK-293; assay type: binding; conditions: 10µM, read-out: CDK11a/L2 Inhibition at 10µM (%)
T1 sequence (Q9UQ88 1-783): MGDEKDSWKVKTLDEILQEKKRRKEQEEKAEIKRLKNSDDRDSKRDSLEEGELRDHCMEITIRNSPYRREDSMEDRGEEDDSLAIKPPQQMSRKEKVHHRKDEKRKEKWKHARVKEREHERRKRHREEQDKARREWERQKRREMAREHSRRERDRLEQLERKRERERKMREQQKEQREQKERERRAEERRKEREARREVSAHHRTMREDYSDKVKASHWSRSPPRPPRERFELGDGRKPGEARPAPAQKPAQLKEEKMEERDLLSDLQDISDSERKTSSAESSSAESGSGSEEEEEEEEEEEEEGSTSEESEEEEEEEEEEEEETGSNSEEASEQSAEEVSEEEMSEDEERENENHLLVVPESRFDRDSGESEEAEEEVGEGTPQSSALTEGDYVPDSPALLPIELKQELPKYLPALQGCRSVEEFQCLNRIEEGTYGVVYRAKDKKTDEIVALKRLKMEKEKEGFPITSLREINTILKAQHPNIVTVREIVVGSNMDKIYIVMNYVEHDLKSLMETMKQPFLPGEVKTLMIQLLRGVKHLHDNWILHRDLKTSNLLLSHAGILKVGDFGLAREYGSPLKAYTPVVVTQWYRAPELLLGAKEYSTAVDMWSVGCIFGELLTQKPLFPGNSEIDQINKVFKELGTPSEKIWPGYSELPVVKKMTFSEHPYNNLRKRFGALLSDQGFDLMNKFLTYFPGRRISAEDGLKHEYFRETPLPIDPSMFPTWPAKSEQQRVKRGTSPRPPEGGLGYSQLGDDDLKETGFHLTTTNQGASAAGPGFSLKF

CDK11B/Cyclin L2 = CDK11B/Cyclin L2 (Homo sapiens, UniProt P21127); assay: NanoBRET live-cell target engagement, CDK11B-NanoLuc/Cyclin L2 in HEK-293; assay type: binding; conditions: 10µM, read-out: CDK11b/L2 Inhibition at 10µM (%)
CDK12/Cyclin K = CDK12/Cyclin K (Homo sapiens, UniProt Q9NYV4); assay: NanoBRET live-cell target engagement, CDK12-NanoLuc/Cyclin K in HEK-293; assay type: binding; conditions: 10µM, read-out: CDK12/K Inhibition at 10µM (%)
CDK13/Cyclin K = CDK13/Cyclin K (Homo sapiens, UniProt Q14004); assay: NanoBRET live-cell target engagement, CDK13-NanoLuc/Cyclin K in HEK-293; assay type: binding; conditions: 10µM, read-out: CDK13/K Inhibition at 10µM (%)
CDK15/Cyclin Y = CDK15/Cyclin Y (Homo sapiens, UniProt Q96Q40); assay: NanoBRET live-cell target engagement, NanoLuc-CDK15/Cyclin Y in HEK-293; assay type: binding; conditions: 10µM, read-out: CDK15/Y Inhibition at 10µM (%)
CDK16/Cyclin Y = CDK16/Cyclin Y (Homo sapiens, UniProt Q00536); assay: NanoBRET live-cell target engagement, CDK16-NanoLuc/Cyclin Y in HEK-293; assay type: binding; conditions: 10µM, read-out: CDK16/Y Inhibition at 10µM (%)
CDK17/Cyclin Y = CDK17/Cyclin Y (Homo sapiens, UniProt Q00537); assay: NanoBRET live-cell target engagement, CDK17-NanoLuc/Cyclin Y in HEK-293; assay type: binding; conditions: 10µM, read-out: CDK17/Y Inhibition at 10µM (%)
CDK18/Cyclin Y = CDK18/Cyclin Y (Homo sapiens, UniProt Q07002); assay: NanoBRET live-cell target engagement, CDK18-NanoLuc/Cyclin Y in HEK-293; assay type: binding; conditions: 10µM, read-out: CDK18/Y Inhibition at 10µM (%)
CDK20/Cyclin H = CDK20/Cyclin H (Homo sapiens, UniProt Q8IZL9); assay: NanoBRET live-cell target engagement, NanoLuc-CDK20/Cyclin H in HEK-293; assay type: binding; conditions: 10µM, read-out: CDK20/H Inhibition at 10µM (%)
CDK19/Cyclin C = CDK19/Cyclin C (Homo sapiens, UniProt Q9BWU1); assay: NanoBRET live-cell target engagement, NanoLuc-CDK19/Cyclin C in HEK-293; conditions: read-out: CDK19/C Inhibition at 10µM (%), 10µM

Sequence of CDK18/Cyclin Y (Q07002 whole entry): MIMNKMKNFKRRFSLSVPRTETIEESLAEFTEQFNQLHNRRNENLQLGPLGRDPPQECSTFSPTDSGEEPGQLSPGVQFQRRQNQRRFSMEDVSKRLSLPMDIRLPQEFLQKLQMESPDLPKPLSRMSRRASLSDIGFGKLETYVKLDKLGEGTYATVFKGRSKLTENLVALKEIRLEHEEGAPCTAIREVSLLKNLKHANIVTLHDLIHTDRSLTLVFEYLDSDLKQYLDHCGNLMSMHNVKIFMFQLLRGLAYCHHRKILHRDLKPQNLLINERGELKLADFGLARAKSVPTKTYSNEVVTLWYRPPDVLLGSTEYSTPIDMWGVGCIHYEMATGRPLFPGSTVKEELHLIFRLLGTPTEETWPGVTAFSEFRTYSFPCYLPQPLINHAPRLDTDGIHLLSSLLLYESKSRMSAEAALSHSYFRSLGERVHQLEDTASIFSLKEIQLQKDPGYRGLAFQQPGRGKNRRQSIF
Sequence of CDK18/Cyclin Y (Q8ND76 whole entry partner): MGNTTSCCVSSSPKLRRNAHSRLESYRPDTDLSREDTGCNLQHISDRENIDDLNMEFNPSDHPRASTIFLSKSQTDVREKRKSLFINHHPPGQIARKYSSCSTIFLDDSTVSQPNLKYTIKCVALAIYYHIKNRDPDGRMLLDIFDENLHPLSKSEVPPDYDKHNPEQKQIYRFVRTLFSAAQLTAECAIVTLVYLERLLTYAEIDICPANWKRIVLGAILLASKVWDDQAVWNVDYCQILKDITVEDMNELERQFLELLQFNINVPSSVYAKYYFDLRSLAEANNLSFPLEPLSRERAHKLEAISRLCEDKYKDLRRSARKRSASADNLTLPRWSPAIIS
Sequence of CDK8/Cyclin C (P49336 whole entry): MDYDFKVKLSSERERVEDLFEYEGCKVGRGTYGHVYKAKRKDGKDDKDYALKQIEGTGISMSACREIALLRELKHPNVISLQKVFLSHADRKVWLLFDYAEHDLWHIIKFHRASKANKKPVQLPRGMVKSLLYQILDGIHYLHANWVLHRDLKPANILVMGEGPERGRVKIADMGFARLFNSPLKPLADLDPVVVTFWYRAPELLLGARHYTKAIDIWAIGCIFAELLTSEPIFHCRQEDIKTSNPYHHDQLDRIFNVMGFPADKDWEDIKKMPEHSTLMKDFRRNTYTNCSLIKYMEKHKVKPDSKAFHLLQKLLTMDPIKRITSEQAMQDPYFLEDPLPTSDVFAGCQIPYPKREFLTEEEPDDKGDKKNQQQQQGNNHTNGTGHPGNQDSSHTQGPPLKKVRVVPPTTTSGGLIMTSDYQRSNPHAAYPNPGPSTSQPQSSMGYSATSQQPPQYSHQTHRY
Sequence of CDK8/Cyclin C (P24863 whole entry partner): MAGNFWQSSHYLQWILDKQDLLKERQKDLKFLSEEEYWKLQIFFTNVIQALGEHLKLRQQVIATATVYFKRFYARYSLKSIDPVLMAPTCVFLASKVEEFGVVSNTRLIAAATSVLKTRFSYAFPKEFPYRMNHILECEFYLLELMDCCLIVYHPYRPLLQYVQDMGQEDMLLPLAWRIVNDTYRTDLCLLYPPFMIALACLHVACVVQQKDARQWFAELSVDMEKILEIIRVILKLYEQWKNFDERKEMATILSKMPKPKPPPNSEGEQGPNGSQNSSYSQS
Sequence of CDK9/Cyclin K (P50750 whole entry): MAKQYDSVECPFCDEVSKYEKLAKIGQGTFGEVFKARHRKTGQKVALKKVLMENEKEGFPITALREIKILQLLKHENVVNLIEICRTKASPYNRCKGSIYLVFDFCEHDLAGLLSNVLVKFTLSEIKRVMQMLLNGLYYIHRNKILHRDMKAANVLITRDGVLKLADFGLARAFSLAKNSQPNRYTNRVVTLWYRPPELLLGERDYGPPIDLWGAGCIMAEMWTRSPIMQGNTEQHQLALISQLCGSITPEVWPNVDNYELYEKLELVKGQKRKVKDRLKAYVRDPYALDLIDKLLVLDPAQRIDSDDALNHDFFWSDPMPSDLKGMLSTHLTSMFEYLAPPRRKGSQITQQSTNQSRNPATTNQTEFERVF
Sequence of CDK9/Cyclin K (O75909 whole entry partner): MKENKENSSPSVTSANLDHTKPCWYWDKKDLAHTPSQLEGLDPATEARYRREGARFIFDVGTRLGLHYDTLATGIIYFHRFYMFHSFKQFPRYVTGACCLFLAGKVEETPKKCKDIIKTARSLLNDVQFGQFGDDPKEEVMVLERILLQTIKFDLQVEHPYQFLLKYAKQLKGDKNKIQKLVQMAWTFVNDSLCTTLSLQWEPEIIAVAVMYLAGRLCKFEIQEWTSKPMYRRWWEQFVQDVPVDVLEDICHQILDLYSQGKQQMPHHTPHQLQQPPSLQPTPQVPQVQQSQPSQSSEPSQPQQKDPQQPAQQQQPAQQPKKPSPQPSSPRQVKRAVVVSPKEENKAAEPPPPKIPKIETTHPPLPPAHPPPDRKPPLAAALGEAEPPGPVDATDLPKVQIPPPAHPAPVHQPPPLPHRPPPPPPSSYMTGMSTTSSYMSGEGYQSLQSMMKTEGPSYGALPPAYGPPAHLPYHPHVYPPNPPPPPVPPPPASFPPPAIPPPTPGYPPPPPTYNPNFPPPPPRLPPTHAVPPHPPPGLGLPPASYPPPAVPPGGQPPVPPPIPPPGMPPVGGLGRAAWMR
Sequence of CDK15/Cyclin Y (Q96Q40 whole entry): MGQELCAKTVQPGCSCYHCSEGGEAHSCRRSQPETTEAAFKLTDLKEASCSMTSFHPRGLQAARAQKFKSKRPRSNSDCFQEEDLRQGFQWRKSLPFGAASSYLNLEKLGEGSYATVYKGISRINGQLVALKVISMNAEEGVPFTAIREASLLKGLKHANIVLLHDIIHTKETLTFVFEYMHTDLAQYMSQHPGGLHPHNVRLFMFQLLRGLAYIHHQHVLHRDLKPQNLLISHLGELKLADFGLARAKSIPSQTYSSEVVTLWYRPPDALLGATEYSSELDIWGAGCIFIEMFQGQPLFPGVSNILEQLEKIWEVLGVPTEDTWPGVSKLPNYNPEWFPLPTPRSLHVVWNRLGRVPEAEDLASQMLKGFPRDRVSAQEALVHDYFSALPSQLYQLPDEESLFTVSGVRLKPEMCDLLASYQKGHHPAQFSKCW
Sequence of CDK15/Cyclin Y (Q8ND76 whole entry partner): as the sequence (Q8ND76 whole entry partner) above
Sequence of CDK12/Cyclin K (Q9NYV4 1-1481 isoform Q9NYV4-2): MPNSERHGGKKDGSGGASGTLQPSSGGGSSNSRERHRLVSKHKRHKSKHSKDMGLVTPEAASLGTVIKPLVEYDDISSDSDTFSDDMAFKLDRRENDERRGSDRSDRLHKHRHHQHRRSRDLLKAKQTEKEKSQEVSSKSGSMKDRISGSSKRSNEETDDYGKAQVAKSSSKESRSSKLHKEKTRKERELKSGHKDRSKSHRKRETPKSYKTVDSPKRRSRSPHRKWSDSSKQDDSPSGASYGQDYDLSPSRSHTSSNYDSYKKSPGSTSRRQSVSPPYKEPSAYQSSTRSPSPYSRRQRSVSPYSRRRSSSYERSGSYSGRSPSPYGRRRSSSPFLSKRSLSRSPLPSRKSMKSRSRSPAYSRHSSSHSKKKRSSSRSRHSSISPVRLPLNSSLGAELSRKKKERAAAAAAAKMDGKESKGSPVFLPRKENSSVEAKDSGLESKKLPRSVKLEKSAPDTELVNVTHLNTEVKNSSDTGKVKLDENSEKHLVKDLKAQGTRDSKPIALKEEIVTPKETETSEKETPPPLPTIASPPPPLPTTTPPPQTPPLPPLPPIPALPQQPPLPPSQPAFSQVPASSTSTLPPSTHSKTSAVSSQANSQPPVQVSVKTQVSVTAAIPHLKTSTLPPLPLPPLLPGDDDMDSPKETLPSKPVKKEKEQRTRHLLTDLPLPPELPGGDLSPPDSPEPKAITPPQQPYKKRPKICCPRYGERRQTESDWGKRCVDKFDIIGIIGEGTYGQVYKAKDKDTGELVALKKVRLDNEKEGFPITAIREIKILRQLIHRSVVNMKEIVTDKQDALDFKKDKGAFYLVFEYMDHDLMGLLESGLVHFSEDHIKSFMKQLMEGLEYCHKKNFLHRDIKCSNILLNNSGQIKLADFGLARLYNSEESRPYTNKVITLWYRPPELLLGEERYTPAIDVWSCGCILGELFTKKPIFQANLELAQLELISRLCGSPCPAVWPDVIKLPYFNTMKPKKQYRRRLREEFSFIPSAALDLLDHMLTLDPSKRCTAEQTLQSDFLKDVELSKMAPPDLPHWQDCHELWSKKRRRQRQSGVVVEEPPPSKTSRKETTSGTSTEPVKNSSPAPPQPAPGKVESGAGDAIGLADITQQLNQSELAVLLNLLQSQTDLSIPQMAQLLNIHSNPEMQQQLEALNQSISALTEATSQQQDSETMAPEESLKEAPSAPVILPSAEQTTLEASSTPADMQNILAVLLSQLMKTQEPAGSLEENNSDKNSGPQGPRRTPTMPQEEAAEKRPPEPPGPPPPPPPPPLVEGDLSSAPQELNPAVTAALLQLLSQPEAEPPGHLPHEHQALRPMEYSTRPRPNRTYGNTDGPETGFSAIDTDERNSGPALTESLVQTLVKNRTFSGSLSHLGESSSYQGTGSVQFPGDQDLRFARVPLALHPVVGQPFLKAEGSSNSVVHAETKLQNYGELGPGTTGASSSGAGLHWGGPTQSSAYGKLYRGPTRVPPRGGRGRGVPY
Sequence of CDK12/Cyclin K (O75909 whole entry partner): as the sequence (O75909 whole entry partner) above
Sequence of CDK7 (P50613 whole entry): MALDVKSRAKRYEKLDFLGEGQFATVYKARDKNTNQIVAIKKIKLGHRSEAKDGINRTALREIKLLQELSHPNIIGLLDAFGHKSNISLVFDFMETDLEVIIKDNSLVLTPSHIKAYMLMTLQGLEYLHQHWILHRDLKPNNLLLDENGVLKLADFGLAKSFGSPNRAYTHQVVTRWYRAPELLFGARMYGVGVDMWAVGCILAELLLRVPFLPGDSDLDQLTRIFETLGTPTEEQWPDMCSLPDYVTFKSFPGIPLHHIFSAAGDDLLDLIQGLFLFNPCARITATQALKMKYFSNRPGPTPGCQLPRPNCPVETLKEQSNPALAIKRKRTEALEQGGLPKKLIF

inhibition at 10 µM (CDK1/Cyclin E1; average of experiments): 21.2%
inhibition at 10 µM (CDK1/Cyclin E1; independent experiment 1): 18.1%
inhibition at 10 µM (CDK1/Cyclin E1; independent experiment 2): 24.3%
inhibition at 10 µM (CDK2/Cyclin E1; average of experiments): 66.9%
inhibition at 10 µM (CDK2/Cyclin E1; independent experiment 1): 79.7%
inhibition at 10 µM (CDK2/Cyclin E1; independent experiment 2): 54%
inhibition at 10 µM (CDK3/Cyclin E1; average of experiments): 39.4%
inhibition at 10 µM (CDK3/Cyclin E1; independent experiment 1): 41.5%
inhibition at 10 µM (CDK3/Cyclin E1; independent experiment 2): 37.2%
inhibition at 10 µM (CDK4/Cyclin D1; average of experiments): -37.2%
inhibition at 10 µM (CDK4/Cyclin D1; independent experiment 1): 8.3%
inhibition at 10 µM (CDK4/Cyclin D1; independent experiment 2): -82.7%
inhibition at 10 µM (CDK5/CDK5R1; average of experiments): 63.7%
inhibition at 10 µM (CDK5/CDK5R1; independent experiment 1): 36.3%
inhibition at 10 µM (CDK5/CDK5R1; independent experiment 2): 91%
inhibition at 10 µM (CDK6/Cyclin D1; average of experiments): -0.5%
inhibition at 10 µM (CDK6/Cyclin D1; independent experiment 1): 5.9%
inhibition at 10 µM (CDK6/Cyclin D1; independent experiment 2): -7%
inhibition at 10 µM (CDK7; average of experiments): -0.0779%
inhibition at 10 µM (CDK7; independent experiment 1): -0.361%
inhibition at 10 µM (CDK7; independent experiment 2): 0.2%
inhibition at 10 µM (CDK8/Cyclin C; average of experiments): 1.6%
inhibition at 10 µM (CDK8/Cyclin C; independent experiment 1): 3.2%
inhibition at 10 µM (CDK8/Cyclin C; independent experiment 2): -0.0599%
inhibition at 10 µM (CDK9/Cyclin K; average of experiments): 8.4%
inhibition at 10 µM (CDK9/Cyclin K; independent experiment 1): -0.3%
inhibition at 10 µM (CDK9/Cyclin K; independent experiment 2): 17.1%
inhibition at 10 µM (CDK11A/Cyclin L2; average of experiments): -4.5%
inhibition at 10 µM (CDK11A/Cyclin L2; independent experiment 1): -2.4%
inhibition at 10 µM (CDK11A/Cyclin L2; independent experiment 2): -6.6%
inhibition at 10 µM (CDK11B/Cyclin L2; average of experiments): 3.9%
inhibition at 10 µM (CDK11B/Cyclin L2; independent experiment 1): 7.1%
inhibition at 10 µM (CDK11B/Cyclin L2; independent experiment 2): 0.8%
inhibition at 10 µM (CDK12/Cyclin K; average of experiments): 1.7%
inhibition at 10 µM (CDK12/Cyclin K; independent experiment 1): 4.5%
inhibition at 10 µM (CDK12/Cyclin K; independent experiment 2): -1.1%
inhibition at 10 µM (CDK13/Cyclin K; average of experiments): 2.3%
inhibition at 10 µM (CDK13/Cyclin K; independent experiment 1): 3%
inhibition at 10 µM (CDK13/Cyclin K; independent experiment 2): 1.7%
inhibition at 10 µM (CDK15/Cyclin Y; average of experiments): 0.0365%
inhibition at 10 µM (CDK15/Cyclin Y; independent experiment 1): 4.9%
inhibition at 10 µM (CDK15/Cyclin Y; independent experiment 2): -4.9%
inhibition at 10 µM (CDK16/Cyclin Y; independent experiment 1): 11.3%
inhibition at 10 µM (CDK16/Cyclin Y; independent experiment 2): -5.5%
inhibition at 10 µM (CDK17/Cyclin Y; average of experiments): 2.5%
inhibition at 10 µM (CDK17/Cyclin Y; independent experiment 1): 0.32%
inhibition at 10 µM (CDK17/Cyclin Y; independent experiment 2): 4.7%
inhibition at 10 µM (CDK18/Cyclin Y; average of experiments): 5.4%
inhibition at 10 µM (CDK18/Cyclin Y; independent experiment 1): -4.7%
inhibition at 10 µM (CDK18/Cyclin Y; independent experiment 2): 15.4%
inhibition at 10 µM (CDK20/Cyclin H; independent experiment 1): -3.3%
inhibition at 10 µM (CDK20/Cyclin H; independent experiment 2): -1.2%
inhibition at 10 µM (CDK19/Cyclin C; average of experiments): 8%
inhibition at 10 µM (CDK19/Cyclin C; independent experiment 1): 12.7%
inhibition at 10 µM (CDK19/Cyclin C; independent experiment 2): 3.4%
Structure (SMILES): CC(C)[C@H](CO)Nc1nc(Nc2ccc(C(=O)O)c(Cl)c2)c2ncn(C(C)C)c2n1 [Purvalanol B]
